Test results: patent publication US9724408B2, “Compositions and methods for activating stimulator of interferon gene-dependent signalling” (ADURO BIOTECH, INC., priority 2013, dated 2017)

How the values were obtained:
[1] = test system: CT26 colon carcinoma cells; assay: Abscopal model, CT26 tumors on contralateral flanks, primary tumor injected; type: in vivo, BALB/c mice; details: 50 μg into the primary tumor only, three injections
Text: The STING-dependent induction of tumor-specific T cell immunity protects animals against subsequent challenge with the autologous tumor. It will be apparent to those skilled in the art that advanced cancer is metastatic, and that to be effective, therapies must inhibit outgrowth of distal masses. Treatment of one or selected lesions that inhibits tumor outgrowth of distal untreated tumor masses is known as an abscopal effect. To test whether IT injection of a selected tumor with synthetic CDN derivative molecules inhibited the tumor outgrowth of a distal untreated tumor, (A) CT26 colon carcinoma cells (1×10^5 cells in 100 μL PBS) and (B) 4T1 mammary carcinoma cells (1×10^5 cells in 100 μL PBS) were implanted subcutaneously on the contralateral flanks of 6-8 week old female BALB/c mice (8 mice per group). Treatments began when tumors reached a volume of approximately 75 mm^3, on day 13 post tumor implantation. The Rp, Rp dithio cyclic [A(2′,5′)pA(3′,5′)p] (ML RR-CDA) compound (50 μg in a total volume of 40 μL HBSS), or HBSS vehicle control, was administered by subcutaneous injection into the center of the primary (right side) tumor only using a 27 gauge needle. Injections were repeated every three days, for a total of three intratumoral injections.

[2] = test system: AH1 peptide; assay: AH1-specific IFN-γ ELISpot of PBMCs from treated CT26-bearing mice; type: in vivo, BALB/c mice; details: day 18 post tumor implantation, 1 μM AH1 peptide, P=0.003, FIG. 21B
Description: To determine whether the synthetic derivative CDN molecules elicit durable and effective anti-tumor T-cell immunity, 6-8 week old female BALB/c mice (8 mice per group) were implanted with CT26 colon carcinoma cells (1×10^5 cells in 100 μL PBS). Mice were treated with Rp, Rp dithio cyclic [A(2′,5′)pA(3′,5′)p] (ML RR-CDA) compound ([…] in a total volume of 40 μL HBSS) or HBSS vehicle control, and tumor growth was monitored as per previous example. Mice were bled on day 18 post tumor implantation and PBMCs were isolated by Ficoll gradient (Miltenyi Biotech). 5×10^4 PBMCs were stimulated overnight in an IFNγ ELISpot assay with media alone (unstimulated), or with 1 μM of the endogenous H-2 L^d-restricted tumor rejection antigen AH1 peptide in the presence of 1×10^5 naïve splenocytes as feeder cells. IFN-γ ELISpot plates were developed and quantified using a CTL plate reader and ImmunoSpot software. On day 55 post tumor implantation, surviving mice and age-matched naïve control mice were implanted on the contralateral flank with either CT26 or 4T1 (both 1×10^5 cells in 100 μL PBS) tumor cells (4 mice per group), and monitored for tumor growth.

[3] = biological target: T1, hSTING (REF) (Homo sapiens, UniProt Q86WV6); assay: IFNβ-LUC reporter in HEK293T cells expressing hSTING (REF); type: cell-based; details: 10 μM, digitonin permeabilization, 6 hrs, FIG. 14
T1 construct: GFP; expressed in transfected cells; plasmid from the Vance Laboratory, UC Berkeley
T1 sequence (Q86WV6 whole entry): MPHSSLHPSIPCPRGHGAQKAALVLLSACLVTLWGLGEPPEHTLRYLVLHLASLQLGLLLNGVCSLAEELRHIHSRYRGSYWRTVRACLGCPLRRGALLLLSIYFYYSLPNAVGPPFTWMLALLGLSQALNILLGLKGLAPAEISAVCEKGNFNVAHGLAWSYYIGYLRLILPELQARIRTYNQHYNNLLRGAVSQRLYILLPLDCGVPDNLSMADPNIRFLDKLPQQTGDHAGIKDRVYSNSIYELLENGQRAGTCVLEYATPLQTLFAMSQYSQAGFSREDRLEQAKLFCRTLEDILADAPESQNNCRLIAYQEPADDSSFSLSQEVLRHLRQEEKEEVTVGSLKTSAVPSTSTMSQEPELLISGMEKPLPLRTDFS
Description: MSCV2.2 plasmids encoding hSTING(REF)-GFP, hSTING(WT)-GFP, hSTING(HAQ)-GFP, hSTING(Q)-GFP and mSTING(WT)-GFP were obtained from the Vance Laboratory at UC Berkeley. hSTING(AQ)-GFP was derived from hSTING(Q)-GFP using a QuickChange Site-Directed Mutagenesis kit (Stratagene). […] 1×10^4 HEK293T STING cells were seeded in 96-well plates and transiently transfected (using Lipofectamine 2000) with 50 ng of a human IFN-β reporter plasmid (pLuc-IFN-β) expressing the human IFN-β promoter upstream of a luciferase reporter and 10 ng of TK-renilla for normalization. 24 hours later, cells were stimulated with native and synthetic CDN derivative molecules using digitonin permeabalization to ensure uniform uptake. Each STING cell line was stimulated with 10 μM of cyclic [G(3′,5′)pA(3′,5′)p] (cGAMP), cyclic [G(2′,5′)pA(3′,5′)p] […] (RR-CDA), cyclic [A(2′,5′)pA(3′,5′)p] […] (RR-CDG), cyclic [G(2′,5′)pG(3′,5′)p] […] (ML RR-CDG) in 25 ul digitonin buffer (50 mM HEPES, 100 mM KCL, 3 mM MgCl2, 0.1 mM DTT, 85 mM Sucrose, 0.2% BSA, 1 mM ATP, 0.1 mM GTP, 10 ug/ml digitonin). After 20 min, the stimulation mixtures were removed and 200 ul of standard RPMI media was added. After stimulation for 6 hrs, cell lysates were prepared and reporter gene activity measured using the Dual Luciferase Assay System (Promega) on a Spectramax M3 luminometer.

| SMILES | inhibition of the treated primary tumor, CT26 ([1]; FIG. 23A) | outgrowth of the contralateral (untreated) tumor, CT26 ([1]; P=0.0011, FIG. 23A) | IFN-γ production of PBMCs in response to AH1 peptide [2] | IFNβ reporter response of hSTING (REF) [3] |
| --- | --- | --- | --- | --- |
| Nc1ncnc2c1ncn2[C@@H]1O[C@@H]2COP(O)(=S)O[C@@H]3C(O)[C@@H](COP(O)(=S)O[C@H]2[C@H]1O)O[C@H]3n1cnc2c(N)ncnc21 (stereo partly shown) [ML RR-CDA, dithio-[RP, RP]-cyclic-[A(2′,5′)pA(3′,5′)p]] | complete inhibition of the treated primary tumor | significantly inhibited | significantly higher IFN-γ in response to AH1 peptide stimulation, as compared to the HBSS-treated control group |  |
| Nc1nc2c(ncn2[C@@H]2O[C@@H]3CO[P@@](O)(=S)O[C@@H]4[C@H](O)[C@@H](CO[P@@](O)(=S)O[C@H]3[C@H]2O)O[C@H]4n2cnc3c(=O)[nH]c(N)nc32)c(=O)[nH]1 [ML RR-CDG, dithio-[RP,RP]-cyclic-[G(2′,5′)pG(3′,5′)p]] |  |  |  | responsive to stimulation |
